Measured values as given in patent EP0431784A2, “Methods for treating retroviral infection” (ELI LILLY AND COMPANY, priority 1989, dated 1991).
Where a SMILES comes first, the peptide text is derived from it. [ ]: non-standard residue; d: D form. Phe(4-NH2) = Nc1ccc(C[C@H](N)C(=O)O)cc1; Sta = CC(C)C[C@H](N)[C@@H](O)CC(=O)O

Tested on: HIV-1 protease
Conditions: for potency relative to the P-9 peptide: protease inhibitor potency compared with P-9 as standard
Description: A 100 µl control reaction was established containing 10 to 20 µI of crude protease, about 2 µl of the gag supernatant and final concentrations of 50 mM MES Buffer (pH 5.5), 1 mM DTT and 25 mM NaCI. Inhibition assays were performed by pre-incubating the crude protease with an inhibitory compound at room temperature for about 30 minutes before adding the gag supernatant to the reaction. Both the control and the experimental reactions were incubated from three to sixteen hours at 37° C. The reactions were then electrophoresed and blotted onto nitrocellulose filters. Monoclonal antibodies which recognize epitopes on p24 and p17 viral proteins were contacted with the filter then visualized using standard biotinylation or radionuclear techniques. Compounds which prevented the maturation of the gag polypeptide into mature viral proteins p24 and p17 were then ranked according to their HIV-1 protease inhibitory activity.
About 10 to 20 µl of the crude protease lysate was mixed with about 2 µl of the gag supernatant. The mixture was then brought to a total volume of 100 µl by the addition of distilled water, MES buffer (2-(N-Morpholino]ethanesulfonic acid) (pH 5.5 to a total concentration of 50 mM), DTT (dithiolthreitol) (to a total concentration of 1 mM) and NaCl (to a total concentration of 25 mM). This reaction mixture was mixed gently then incubated from 3 hours to overnight at 37° C.
Next, about 25 µl of the reaction was mixed with loading buffer and subjected to polyacrylamide gel electrophoresis on a 12.5% Laemmli gel under reducing conditions. The proteins were transferred onto a nitrocellulose filter using standard "Western Blot" electrophoresis at 500 mAmps for 35 minutes at room temperature. The filter was air-dried, then non-specific immunoreaction was blocked by washing the filter for 30 minutes at 4° C in a solution of 3% non-fat dry milk powder in phosphate buffered saline (PBS).
Monoclonal antibodies against p17 and/or p24 (available from Dupont, Wilmington, Delaware) were added to about 40 ml of the 3% milk/PBS solution to a final concentration of 2 µg/ml. The nitrocellulose filter was added to the antisera solution and slowly rocked for 2 hours at 4 C. The filter then was removed and washed 5 times with PBS, then the maturation of the gag gene was determined by reaction with 1^125- labeled protein A or by reaction with biotinylated anti-mouse lgG antibodies (Vecta Stain@).
To run the I^125-labeled protein A reaction, about 10 µCi of I^125-labeled protein A was added to 100 ml of the 3% milk/PBS solution. The filter was rocked in this solution for 2 hours at 4° C, washed three times with PBS, then two times with PBS and 0.1% Tween 20. The filter was then air-dried and exposed to x-ray film for autoradiography.
The Vecta Stain@ (Vector Laboratories, Burlingome, California) procedure was performed according to the manufacturer's recommendations. Four drops of the biotinylated IgG was added to 40 mls of the 3% Milk/PBS solution, then the filter was rocked in this solution for 60 minutes at 4° C. The filter was washed five times with PBS, then rocked for 30 to 60 minutes at 4 C in Reagent ABC. Reagent ABC was prepared by adding 4 drops of Reagent A (Avidin DH) and 4 drops of Reagent B (biotinylated peroxidase) to 20 ml of 3% Milk/PBS. The filter was then washed five times with PBS, then the filter was developed by washing it for 5 to 10 minutes in 10 ml of PBS containing 0.02% H202 and 10 ml of 4-chloro-1 naphthol. When the color was fully developed, the filter was washed with distilled water and air-dried.
Following the procedure, it is simple to determine the activity of the HIV-1 protease encoded on plasmid pHP10D and produced in E. coli cells.

Structure (SMILES): CC(=O)N[C@H](C(=O)N[C@@H](CC(C)C)[C@@H](O)CC(=O)N[C@@H](CC(C)C)C(=O)N[C@@H](Cc1ccccc1)C(N)=O)C(C)C [Ac-Val-Statine-Leu-Phe-NH2] (Ac-V[Sta]LF-NH2)
- HIV protease inhibitory activity (result in words): inactive

Structure (SMILES): COc1ccc(C[C@H](NC(C)=O)C(=O)N[C@@H](Cc2ccccc2)C(=O)N[C@H](C(=O)N[C@@H](CC(C)C)[C@@H](O)CC(=O)N[C@@H](CC(C)C)C(=O)N[C@@H](Cc2ccccc2)C(=O)N[C@@H](Cc2ccc(O)cc2)C(=O)N[C@@H](CC(C)C)C(N)=O)C(C)C)cc1 [Ac-YOM-Phe-Val-Statine-Leu-Phe-Tyr-Leu-NH2] (Ac-Y(Me)FV[Sta]LFYL-NH2)
- HIV protease inhibitory activity (result in words): totally inactive

Structure (SMILES): CC(C)C[C@H](NC(=O)C[C@H](O)[C@H](CC(C)C)NC(=O)[C@@H](NC(=O)[C@H](Cc1ccccc1)NC(=O)[C@@H]1CCCN1C(=O)[C@H](Cc1ccc(N)cc1)NC(=O)[C@@H]1CCCN1)C(C)C)C(=O)N[C@@H](Cc1ccccc1)C(=O)N[C@@H](Cc1ccc(N)cc1)C(N)=O [P-1, H-Pro-paF-Pro-Phe-Val-Statine-Leu-Phe-paF-NH2] (H-P[Phe(4-NH2)]PFV[Sta]LF[Phe(4-NH2)]-NH2)
- potency relative to the R,S-diastereomer (P-28) ((S,S) Statine versus R,S-Sta peptide): 20 times

Structure (SMILES): COc1ccc(C[C@H](NC(C)=O)C(=O)N2CCC[C@H]2C(=O)N[C@@H](Cc2ccccc2)C(=O)N[C@H](C(=O)N[C@@H](CC(C)C)[C@@H](O)CC(=O)N[C@@H](CC(C)C)C(=O)N[C@@H](Cc2ccccc2)C(N)=O)C(C)C)cc1 [P-9, Ac-YOM-Pro-Phe-Val-Statine-Leu-Phe-NH2] (Ac-Y(Me)PFV[Sta]LF-NH2)
- potency relative to P-7 (protease inhibitor potency compared with P-7): increases the potency three to four times

Structure (SMILES): COc1ccc(C[C@H](NC(=O)[C@H](Cc2ccc(O)cc2)NC(=O)CNC(C)=O)C(=O)N2CCC[C@H]2C(=O)N[C@@H](Cc2ccccc2)C(=O)N[C@H](C(=O)N[C@@H](CC(C)C)[C@@H](O)CC(=O)N[C@@H](CC(C)C)C(=O)N[C@@H](Cc2ccccc2)C(N)=O)C(C)C)cc1 [P-29, Ac-Gly-Tyr-YOM-Pro-Phe-Val-Statine-Leu-Phe-NH2] (Ac-GYY(Me)PFV[Sta]LF-NH2)
- potency relative to the P-9 peptide: three times more potent

Structure (SMILES): COc1ccc(C[C@H](NC(C)=O)C(=O)N2CCC[C@H]2C(=O)N[C@@H](Cc2ccccc2)C(=O)N[C@H](C(=O)N[C@@H](CC(C)C)[C@@H](O)CC(=O)N[C@@H](CC(C)C)C(=O)N[C@@H](Cc2ccccc2)C(=O)N[C@@H](Cc2ccc(O)cc2)C(=O)N[C@@H](CC(C)C)C(N)=O)C(C)C)cc1 [P-30, Ac-YOM-Pro-Phe-Val-Statine-Leu-Phe-Tyr-Leu-NH2] (Ac-Y(Me)PFV[Sta]LFYL-NH2)
- potency relative to the P-9 peptide: about 1.5 times
